pEC50, pIC50: −log10 of the molar value. “Also recorded” adds a separate entry of the source. Like-named read-outs stand apart in the source and are kept apart here.
Experiments:
[1] = test system: 5 dpf larval zebrafish; experiment: Zebrafish behavioral model of anesthesia, elicited movement (EM, tap stimulus); type: in vivo; details: for Antagonism of propofol via EM: screen
Procedure: (§1) Figure 2 Screening of PFAL compounds for antagonism of anesthesia. PFAL compounds were screened in 5 dpf zebrafish for their ability to antagonize the anesthetic effects of propofol (panels a, b, c and d) as well as sevoflurane and isoflurane (panels e and f). Each dot represents the data collected from one fish. Spontaneous movement (SM) is the distance of spontaneous swimming in a 4 min period, and elicited movement (EM) is distance moved in 1 s after exposure to a tap stimulus. Both measures were scaled to same-day DMSO controls. […] Mean and 95% CI are shown for each data set. Statistical comparison with both DMSO (D) only (black asterisks) and anesthetic control (Ctrl, gray asterisks) groups are shown. Note that each DMSO comparison is to the DMSO only control (sample on the furthest left of each graph, and the anesthetic control comparisons are made within each anesthetic grouping as indicated by the bars along the x-axis of each graph. ns: P > 0.05, *: P ≤ 0.05, **: P ≤ 0.01, ***: P ≤ 0.001, ****: P ≤ 0.0001).
(§2) Behavioral experiments (screening, EC50 curves) were performed as previously reported. Antagonism after induction was conducted in a similar manner with different timepoints and solution changes as indicated. The DanioVision Observation Chamber (Noldus) and Ethovision XT16 software were used to track and record (1280 × 960 resolution at 25 frames per second) larval zebrafish (5 dpf) movement in glass 96-well plates (Zissner North America 3,600,500). All experiments were performed at 28 °C with the DanioVision Temperature Control Unit. Zebrafish were allowed to equilibrate in E3 and 2% DMSO (with or without drug) for 10 min before being placed in the observation chamber for 22 min of recording. Two different endpoints were used to assess depth of anesthesia: spontaneous movement (SM) and elicited movement (EM). In these measures, fish movement was considered to be non-anesthetized. During each observation, fish were given time to acclimate to the chamber, and minutes 15–19 of the recording were used for analysis of SM. An EM response using the Daniovision tapping device (8 out of 8 intensity, movement response measured for 1 s after stimulus) was also measured at the end of the SM observation period. All recordings were scrutinized by a blind observer for technical errors in tracking to ensure accuracy of zebrafish detection and inaccurate tracking was excluded from further analysis. Toxicity was measured in separate experiments by exposing larvae to compounds for 30 min, transferring to fresh E3, and then observing mortality after exposure. […]

[2] = target: T1, horse spleen apoferritin (HSAF) (Equus caballus, UniProt P02791); experiment: 1-Aminoanthracene (1-AMA) competition fluorescence assay; type: binding
T1 construct: model protein HSAF (horse spleen apoferritin); purchased Sigma-Aldrich; host or cells: horse spleen (tissue-derived)
T1 sequence (P02791 2-175 limits assumed): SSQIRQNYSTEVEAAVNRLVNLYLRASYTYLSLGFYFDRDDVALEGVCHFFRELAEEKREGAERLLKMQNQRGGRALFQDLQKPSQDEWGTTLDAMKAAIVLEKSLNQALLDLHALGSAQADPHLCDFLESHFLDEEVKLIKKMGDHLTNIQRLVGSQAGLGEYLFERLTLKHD

[3] = test system: 5 dpf larval zebrafish; experiment: Zebrafish behavioral model of anesthesia, spontaneous movement (SM); type: in vivo; details: for Antagonism of propofol via SM: screen; for Spontaneous movement (SM), compound alone: PFAL compound alone at 10 and 30 μM, versus DMSO control; for Antagonism of propofol via SM at 5 μM propofol: propofol 5 μM
Procedure: as §1, §2

[4] = test system: 5 dpf larval zebrafish; design: method as in PMID 32978423; details: 5 dpf zebrafish, previously determined; read-out: EC50 for SM of the anesthetic; cited from earlier work
[5] = test system: 5 dpf larval zebrafish; design: method as in PMID 32978423; details: 5 dpf zebrafish, previously determined; read-out: EC50 for EM of the anesthetic; cited from earlier work
[6] = HPLC concentration of volatile anesthetics in sealed glass 96-well plates over time; type: physicochemical; details: 3M 300LSE adhesive seal, 3-hour mark
Procedure: Behavioral Experiments with Volatile Anesthetics. Solutions of inhaled volatile anesthetics were stored in glass vials with minimal head space and were transferred utilizing Hamilton gas-tight syringes to prevent evaporative loss. Isoflurane (Primal Care) was stored at 4°C, and sevoflurane (AbbVie Inc.) was stored at -20°C. Solutions were made in DMSO and then diluted in glass scintillation vials to the desired experimental concentrations in E3 (embryo water). Each vial contained 22 mL of E3 which minimized head space to prevent drug loss. Vials were sealed quickly after addition of volatile anesthetics to minimize loss. Solutions were mixed via vortexing, and anesthetics dissolved readily in the final DMSO concentration of 2%. […]
have a significant change in zebrafish behavior. To assure consistent concentration of volatile anesthetic, this experiment was repeated without fish and concentrations were measured by HPLC. […]
1-Aminoanthracene Competition Fluorescence Assay. […] After filtration, the 1-AMA concentration was determined by UV−vis spectroscopy utilizing an experimentally determined extinction coefficient of 1-AMA (Σ368 = 4073 M−1 cm−1).4 Stock solutions of ligand were prepared in DMSO. […] The fluorescence curves were corrected by subtracting contributions from 1-AMA alone and HSAF alone. Fluorescence intensities at 515 nm were plotted as a percentage […]

[7] = at 20°C; no reference given; cited from earlier work
[8] = test system: 5 dpf zebrafish; experiment: Antagonism of anesthesia after induction (sequential addition); type: in vivo; details: propofol 3 μM for 10 min, then propofol 3 μM plus 30 μM compound
Procedure: In the above studies, the anesthetic and PFAL compounds were co-administered to the fish simultaneously.
Figure 5 Further Characterization of Propofol Antagonism with Compounds 9 and 10. a and b 5 dpf zebrafish (n = 36) were first anesthetized with 3 μM propofol and then 30 μM of either compound 9 or 10 was added. Between minutes 5 and 10 there is a small gap in the data during which the propofol solution was removed and a solution containing propofol and PFAL compound was added. […] The mean and 95% CI is shown for each data point in all panels.
Behavioral experiments (screening, EC50 curves) were performed as previously reported. Antagonism after induction was conducted in a similar manner with different timepoints and solution changes as indicated. The DanioVision Observation Chamber (Noldus) and Ethovision XT16 software were used to track and record (1280 × 960 resolution at 25 frames per second) larval zebrafish (5 dpf) movement in glass 96-well plates (Zissner North America 3,600,500). […] An EM response using the Daniovision tapping device (8 out of 8 intensity, movement response measured for 1 s after stimulus) was also measured at the end of the SM observation period. […] Toxicity was measured in separate experiments by exposing larvae to compounds for 30 min, transferring to fresh E3, and then observing mortality after exposure.

[9] = 10 μM PFAL compound co-administered with propofol
[10] = 30 μM PFAL compound co-administered with propofol (0.3, 1, 5 μM)

Structure (SMILES): Cc1ccccc1F [Compound 2, 1-methyl-2-fluorobenzene]
- Antagonism of propofol via EM [1, 9]: not to be statistically different than the propofol controls

Structure (SMILES): CC(C)(C)c1ccc(C(C)(C)C)c(F)c1 [Compound 13, 1,4-ditertbutyl-2-fluorobenzene]
- Log(IC50), displacement of 1-AMA from HSAF ([2]; Fig. 6a, nb = non-binding): nb

Structure (SMILES): C1CCc2nnnn2CC1 [Pentylenetetrazole, pentylenetetrazole, reference compound]
- Pattern of movement ([3]; known epileptogenic comparator): uncontrolled movement (seizure)

Structure (SMILES): CC(C)c1cccc(C(C)C)c1O [Propofol]
- pEC50 ([3]; Danio rerio, propofol alone, Fig. 4a): 6.85
- pEC50 [4]: 7.00
- pEC50 ([1]; Danio rerio, propofol alone, Fig. 4b): 5.45
- pEC50 [5]: 5.42

Structure (SMILES): CCc1ccc(CC)c(F)c1 [Compound 7, 1,4-diethyl-2-fluorobenzene]
- Antagonism of propofol via SM [3, 10]: showed antagonism of propofol; also recorded: statistically significant antagonism
- Spontaneous movement (SM), compound alone [3]: increased SM
- Antagonism of propofol via EM ([1]; 30 μM PFAL compound co-administered with propofol): did not antagonize propofol

Structure (SMILES): FC(F)OC(Cl)C(F)(F)F (centres unmarked) [Isoflurane]
- pEC50 [4]: 4.38
- pEC50 [5]: 3.74
- Concentration remaining in sealed glass 96-well plate [6]: 96%
- Vapor pressure [7]: 238 mmHg

Structure (SMILES): CC(C)c1ccc(C(C)C)c(F)c1 [Compound 10, 1,4-diisopropyl-2-fluorobenzene]
- Antagonism of propofol via SM [3, 9]: demonstrated antagonism of propofol
- Antagonism of propofol via SM at 1 μM propofol ([3]; 10 μM PFAL compound, propofol 1 μM): able to antagonize propofol
- Antagonism of propofol via SM at 5 μM propofol ([3]; 10 μM PFAL compound): did not show antagonism
- Antagonism of propofol via SM [3, 10]: showed antagonism of propofol; also recorded: statistically significant antagonism
- Antagonism of propofol via SM at 5 μM propofol ([3]; 30 μM PFAL compound): antagonized propofol
- pIC50 ([3]; Danio rerio, 120 h, 5 dpf zebrafish exposed to 3 μM propofol, Fig. 5d, read-out: IC50 (antagonism of propofol)): 4.60
- Spontaneous movement (SM), compound alone [3]: increased SM
- Increase of propofol EC50 versus propofol alone, spontaneous movement ([3]; propofol plus 30 μM compound, Fig. 4a): ~ fourfold
- Elicited movement (EM), compound alone ([1]; PFAL compound alone at 10 and 30 μM, versus DMSO control): increased EM
- Schild-type analysis with EM ([1]; propofol EC50 curves (EM) at various concentrations of the compound, Fig. S6): no such relationship of antagonism was observed
- Inhibition of 1-AMA binding to HSAF ([2]; 15 μM 1-AMA, 15 μM HSAF dimer, ligand 1 to 125 μM): most potent inhibitors of 1-AMA binding
- Shape of IC50 curve for 1-AMA displacement ([2]; Fig. 6b): incomplete inhibition of 1-AMA binding
- Reversal of established propofol immobility [8]: rapid reversal of propofol immobility

Structure (SMILES): CC(C)(C)c1ccccc1F [Compound 11, 1-tertbutyl-2-fluorobenzene]
- Antagonism of propofol via EM [1, 9]: not to be statistically different than the propofol controls

Structure (SMILES): FCOC(C(F)(F)F)C(F)(F)F [Sevoflurane]
- pEC50 [4]: 4.12
- pEC50 [5]: 3.62
- Concentration remaining in sealed glass 96-well plate [6]: constant
- Vapor pressure [7]: 157 mmHg
